Positions of bridges follow the written chain, without caps; N, C: chain ends. Non-standard residues stand in square brackets, D forms with d. Residues, ends and D or L forms follow the SMILES beside them.
Test system: B16/F1 melanoma
Experiment: Biodistribution in B16/F1 melanoma-bearing C57 mice
Assay type: in vivo
Conditions: for Tumor uptake blocked by NDP-MSH: 6.1 nmol of NDP-MSH; for Tumor uptake decreased (blocked) by RGD co-injection: 3.5 μg (6.1 nmol) of RGD; for Tumor uptake with NDP-MSH co-injection as % of the tumor uptake without: 10 μg (6.1 nmol) NDP-MSH, 2 h after dose administration
Procedure: All the animal studies were conducted in compliance with Institutional Animal Care and Use Committee approval. The pharmacokinetics of ^99mTc-RGD-Lys-(Arg^11)CCMSH was determined in B16/F1 melanoma-bearing C57 female mice (Harlan, Indianapolis, Ind.). C57 mice were subcutaneously inoculated on the right flank with 1×10^6 B16/F1 cells. The weight of tumors reached approximately 0.2 g 10 days post cell inoculation. Each melanoma-bearing mouse was injected with 0.037 MBq of ^99mTc-RGD-Lys-(Arg^11)CCMSH via the tail vein. Groups of 5 mice were sacrificed at 0.5, 2, 4 and 24 h post-injection, and tumors and organs of interest were harvested, weighed and counted. Blood values were taken as 6.5% of the whole-body weight. The MC1 receptor specificity of the tumor uptake was determined at 2 h post-injection by co-injecting ^99mTc-RGD-Lys-(Arg^11)CCMSH with 10 μg (6.1 nmol) of unlabeled NDP-MSH, a linear α-MSH peptide analogue with picomolar affinity for the MC1 receptors present on murine melanoma cells. The co-injection of 3.5 μg (6.1 nmol) of RGD peptide was performed to determine the αvβ3 integrin specificity of the tumor uptake 2 h post-injection. Statistical analysis was performed using the Student's t-test for unpaired data.
All the animal studies were conducted in compliance with Institutional Animal Care and Use Committee approval. The pharmacokinetics of ^99mTc-RGD-Arg-(Arg^11)CCMSH was determined in B16/F1 melanoma-bearing C57 female mice (Harlan, Indianapolis, Ind.). C57 mice were subcutaneously inoculated on the right flank with 1×10^6 B16/F1 cells. The weight of tumors reached approximately 0.2 g 10 days post cell inoculation. Each melanoma-bearing mouse was injected with 0.037 MBq of ^99mTc-RGD-Arg-(Arg^11)CCMSH via the tail vein. Groups of 5 mice were sacrificed at 0.5, 2, 4 and 24 h post-injection, and tumors and organs of interest were harvested, weighed and counted. Blood values were taken as 6.5% of the whole-body weight. The MC1 receptor specificity of the tumor uptake was determined at 2 h post-injection by co-injecting ^99mTc-RGD-Arg-(Arg^11)CCMSH with 10 μg (6.1 nmol) of unlabeled NDP-MSH. The co-injection of 3.5 μg (6.1 nmol) of RGD peptide was performed to determine the αvβ3 integrin specificity of the tumor uptake at 2 h post-injection.

Renal uptake values as % of those of ^99mTc-RGD-Lys-(Arg^11)CCMSH (0.5, 2, 4 and 24 h post-injection)	Renal uptake value as % of that of ^99mTc-RGD-Lys-(Arg^11)CCMSH (0.5 h post-injection)	Tumor uptake value, times that of ^99mTc-RGD-Lys-(Arg^11)CCMSH (0.5 h post-injection)	Renal uptake value as % of that of ^99mTc-RGD-Lys-(Arg^11)CCMSH (2 h post-injection)	Tumor uptake value, times that of ^99mTc-RGD-Lys-(Arg^11)CCMSH (2 h post-injection)	Renal uptake value as % of that of ^99mTc-RGD-Lys-(Arg^11)CCMSH (4 h post-injection)	Tumor uptake value as % of the tumor uptake value 2 h post-injection (4 h post-injection)	Tumor uptake value, times that of ^99mTc-RGD-Lys-(Arg^11)CCMSH (4 h post-injection)	Renal uptake value as % of that of ^99mTc-RGD-Lys-(Arg^11)CCMSH (24 h post-injection)	Tumor/kidney uptake ratio, times that of ^99mTc-RGD-Lys-(Arg^11)CCMSH (24 h post-injection)	Kidneys, Percentage Injected Dose/gram (4 h post-injection)	Renal uptake value, times that of ^99mTc-(Arg^11)CCMSH (4 h post-injection)	Tumor uptake value, times that of ^99mTc-(Arg^11)CCMSH (4 h post-injection)	Tumor uptake value as % of the tumor uptake value 2 h post-injection (24 h post-injection)	Tumor uptake value, times that of ^99mTc-(Arg^11)CCMSH (24 h post-injection)	Renal uptake value, times that of ^188Re-dLys-(Arg^11)CCMSH (mouse, in vivo)	SMILES	Tumor uptake blocked by NDP-MSH (2 h post-injection)	Tumor uptake decreased (blocked) by RGD co-injection (2 h post-injection)	Tumor uptake with NDP-MSH co-injection as % of the tumor uptake without
40.14-64.08%	53.65%	1.27 times	64.08%	1.44 times	52.89%	75%	1.28 times	40.14%	2.21 times							CC(C)[C@H](NC(=O)[C@@H]1CCCN1C(=O)[C@H](CCCNC(=N)N)NC(=O)[C@H](CS)NC(=O)[C@H](Cc1c[nH]c2ccccc12)NC(=O)[C@H](CCCNC(=N)N)NC(=O)[C@@H](Cc1ccccc1)NC(=O)[C@H](Cc1c[nH]cn1)NC(=O)[C@H](CCC(=O)O)NC(=O)[C@H](CS)NC(=O)[C@H](CS)NC(=O)[C@H](CCCNC(=N)N)NC(=O)[C@@H]1CC(=O)N[C@@H](CCCNC(=N)N)C(=O)NCC(=O)N[C@@H](CC(=O)O)C(=O)N[C@H](Cc2ccc(O)cc2)C(=O)N1)C(N)=O [^99mTc-RGD-Arg-(Arg^11)CCMSH, metal not drawn] (RGD[dY]DRCCEH[dF]RWCRPV-NH2; lactam N-5)	90.9%	21.2%	9.15%
						85%				69.29 ± 14.34 % ID/g	12.5 times	1.1 times	51%	2.3 times	1.2 times	CC(C)[C@H](NC(=O)[C@@H]1CCCN1C(=O)[C@H](CCCNC(=N)N)NC(=O)[C@H](CS)NC(=O)[C@H](Cc1c[nH]c2ccccc12)NC(=O)[C@H](CCCNC(=N)N)NC(=O)[C@@H](Cc1ccccc1)NC(=O)[C@H](Cc1c[nH]cn1)NC(=O)[C@H](CCC(=O)O)NC(=O)[C@H](CS)NC(=O)[C@H](CS)NC(=O)[C@H](CCCCN)NC(=O)[C@@H]1CC(=O)N[C@@H](CCCNC(=N)N)C(=O)NCC(=O)N[C@@H](CC(=O)O)C(=O)N[C@H](Cc2ccc(O)cc2)C(=O)N1)C(N)=O [^99mTc-RGD-Lys-(Arg^11)CCMSH, metal not drawn] (RGD[dY]DKCCEH[dF]RWCRPV-NH2; lactam N-5)	87.8%	29.2%	12.2%
